The results in this text go back to patent publication US20240174680A1, “CDK2 INHIBITORS AND METHODS OF USING THE SAME” (Cedilla Therapeutics, Inc., priority 2021, published 2024).

Bounds are passed on as bounds.

In this experiment the target is CDK2/Cyclin E1 (Homo sapiens, UniProt P24941). The experiment in a line: CDK2/Cyclin E1 Caliper LabChip EZ Reader mobility shift assay. In kind it is biochemical. More on the design: purchased Eurofins 14-475. To be noted: read-out: Caliper Assay (CDK2/CCNE1): IC50. In outline: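 Substrate-to-product conversion of fluorescent peptide (1.5 μM final) read by capillary electrophoresis after 100 min reaction, EDTA-quenched. Enzyme (2.5 nM final) and ATP (100 μM final) were preincubated 30 min with inhibitor dilutions first. % activity vs concentration fitted four-parameter for IC50.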
Regarding `CC(O[C@H](C)[C@H](NC(=O)[C@@H]1CN(C(=O)c2cncs2)CC12CN(C(=O)[C@H]1CC1(C)C)C2)C(=O)N1CCCCC1)C1CCCCC1` (stereo partly drawn) [I-284, (8S)—N-((2S,3R)-3-(1-cyclohexylethoxy)-1-oxo-1-(piperidin-1-yl)butan-2-yl)-2-((S)-2,2-dimethylcyclopropane-1-carbonyl)-6-(thiazole-5-carbonyl)-2,6-diazaspiro[3.4]octane-8-carboxamide], the IC50 lay within 10 to 100 nM.

As for `CNC(=O)[C@@H](NC(=O)[C@@H]1CN(C(=O)c2cnn(Cc3ccccc3)c2)CC12CN(C(=O)CC(F)(F)F)C2)[C@@H](C)OCc1ccccc1` [I-87A], the IC50 is 100 to 1000 nM.

`CNC(=O)[C@@H](NC(=O)[C@@H]1CN(C(=O)c2cnn(Cc3ccccc3)c2)CC12CN(C(=O)[C@H]1CC1(C)C)C2)[C@@H](C)SCc1ccccc1` [I-368]: the IC50 was in the range of 100 to 1000 nM.

Consider `COC[C@H]1CCCN(C(=O)[C@@H](NC(=O)[C@@H]2CN(C(=O)c3cncs3)CC23CN(C(=O)[C@H]2CC2(C)C)C3)[C@@H](C)OCc2ccccc2F)C1` [I-321], for which the IC50 fell in the range of 10 to 100 nM.

Consider `CNC(=O)[C@@H](NC(=O)[C@H]1CN(C(=O)c2scnc2C2CC2)CC12CN(C(=O)[C@H]1CC1(C)C)C2)[C@@H](C)OCC1CCCCC1` [I-185B], for which the IC50 is > 10000 nM.

In the case of `C[C@@H](OCC1CCCCC1)[C@H](NC(=O)C1CN(C(=O)c2cnn(Cc3ccccc3)c2)CC12CN(C(=O)[C@H]1CC1(C)C)C2)C(=O)NCCC(=O)O` (stereo partly drawn) [I-353], the IC50 is ≤ 10 nM.

Take `CNC(=O)[C@@H](NC(=O)[C@@H]1CN(C(=O)c2cnc(CC3CC3)s2)CC12CN(C(=O)[C@H]1CC1(C)C)C2)[C@@H](C)OCC1CCCCC1` [I-177A]: the IC50 was 100 to 1000 nM.

For `CNC(=O)C(NC(=O)[C@@H]1CN(C(=O)c2cncs2)CC12CN(C(=O)[C@H]1CC1(C)C)C2)c1cccc(C2CCC(F)(F)CC2)n1` (stereo partly drawn) [I-411], the IC50 lay within 10 to 100 nM.

For the molecule `CNC(=O)[C@@H](NC(=O)[C@@H]1CN(C(=O)c2cnn(Cc3ccccc3)c2)CC12CN(C(=O)NC(C)C)C2)[C@@H](C)OCC1CCCCC1` [I-267], the IC50 lay in the range of 1000 to 10000 nM.

As for `CC1(C)C[C@@H]1C(=O)N1CC2(CN(C(=O)c3cnn(Cc4ccccc4)c3)C[C@H]2C(=O)N2CC[C@@H](OCC3CCCCC3)C2)C1` [I-235], the IC50 lay within 100 to 1000 nM.

Take `C[C@@H](OCC1CCCCC1)[C@H](NC(=O)[C@@H]1CN(C(=O)c2cnn(Cc3ccccc3)c2)CC12CN(C(=O)[C@H]1CC1(C)C)C2)C(=O)NCC(C)(C)C(=O)O` [I-472]: the IC50 is ≤ 10 nM.

In the case of `CNC(=O)[C@@H](NC(=O)[C@H]1CN(C(=O)C2CCNC2)CC12CN(C(=O)[C@H]1CC1(C)C)C2)[C@@H](C)OCc1ccccc1` (stereo partly drawn) [I-70B], the IC50 was > 10000 nM.

`C[C@@H](OCC12CCC(CC1)OC2)[C@H](NC(=O)[C@@H]1CN(C(=O)c2cncs2)CC12CN(C(=O)[C@H]1CC1(C)C)C2)C(=O)N1CCC[C@H](COC(F)F)C1` [I-461]: the IC50 is ≤ 10 nM.

Consider `CNC(=O)[C@@H](NC(=O)[C@H]1CN(C(=O)C2CCOCC2)CC12CN(C(=O)[C@H]1CC1(C)C)C2)[C@@H](C)OCc1ccccc1` [I-38B], for which the IC50 was > 10000 nM.

With `CNC(=O)[C@@H](NC(=O)[C@H]1CN(C(=O)c2cnn(Cc3ccccc3)c2)CC12CN(C(=O)C1(c3ccc(C(C)(C)C)cc3)CC1)C2)[C@@H](C)OCc1ccccc1` [I-80B], the IC50 is > 10000 nM.

For `CNC(=O)[C@@H](NC(=O)[C@H]1CN(C(=O)c2scnc2C(F)(F)F)CC12CN(C(=O)[C@H]1CC1(C)C)C2)[C@@H](C)OCC1CCCCC1` [I-163B], the IC50 was > 10000 nM.

With `CNC(=O)[C@H](CCCc1ccccc1)NC(=O)[C@H]1CN(C(=O)c2cnn(Cc3ccccc3)c2)CC12CN(C(=O)[C@H]1CC1(C)C)C2` [I-101B], the IC50 was > 10000 nM.

Take `CNC(=O)[C@@H](NC(=O)[C@@H]1CN(C(=O)c2cnn(Cc3ccccc3)c2)CC12CN(C(=O)[C@H]1CC1(C)C)C2)[C@@H](C)OCC1CCC(C(F)(F)F)CC1` (stereo partly drawn) [I-141A]: the IC50 was in the range of 10 to 100 nM.

As to `COC[C@H]1CCCN(C(=O)[C@@H](NC(=O)[C@@H]2CN(C(=O)c3cncs3)CC23CN(C(=O)[C@H]2CC2(C)C)C3)[C@@H](C)OCc2ccc(OC(F)(F)F)cc2)C1` [I-320], the IC50 was ≤ 10 nM.

Take `CNC(=O)[C@@H](NC(=O)[C@@H]1CN(C(=O)c2c[nH]c3ccccc23)CC12CN(C(=O)[C@H]1CC1(C)C)C2)[C@@H](C)OCc1ccccc1` [I-72A]: the IC50 was > 10000 nM.

As to `CNC(=O)[C@@H](NC(=O)[C@H]1CN(C(=O)c2cnn(Cc3ccccc3)c2)CC12CN(C(=O)C(C)C)C2)[C@@H](C)OCc1ccccc1` [I-54B], the IC50 was > 10000 nM.

In the case of `CC1(C)C[C@@H]1C(=O)N1CC2(CN(C(=O)c3cnn(Cc4ccccc4)c3)C[C@H]2C(=O)N2CCC[C@H](C(=O)NC3CCCCC3)C2)C1` [I-180], the IC50 is 100 to 1000 nM.

Turning to `CC(=O)N1C[C@@H](C(=O)N[C@H](C(=O)N2CCCCC2)[C@@H](C)OCC2CCCCC2)C2(C1)CN(C(=O)[C@H]1CC1(C)C)C2` [I-118], the IC50 is > 10000 nM.

For `CC1(C)C[C@@H]1C(=O)N1CC2(CN(C(=O)c3cnn(Cc4ccccc4)c3)C[C@@H]2C(=O)N[C@H]2CCc3cc(Cl)ccc32)C1` [I-120B], the IC50 was in the range of 1000 to 10000 nM.

On to `COC(=O)C1(NC(=O)[C@@H]2CN(C(=O)c3cnn(Cc4ccccc4)c3)CC23CN(C(=O)[C@H]2CC2(C)C)C3)COC1` [I-142B], for which the IC50 was > 10000 nM.

Turning to `CNC(=O)[C@@H](NC(=O)[C@@H]1CN(C(=O)c2cncs2)CC12CN(Cc1cnco1)C2)[C@@H](C)OCC12CCC(CC1)OC2` [I-350], the IC50 was > 10000 nM.

Consider `COC[C@H]1CCCN(C(=O)[C@@H](NC(=O)[C@@H]2CN(C(=O)c3cncs3)CC23CN(C(=O)C(C)(C)C2CC2)C3)[C@@H](C)OC[C@H]2CC[C@H](O)CC2)C1` [I-431], for which the IC50 lay in the range of 100 to 1000 nM.

For `C[C@@H](OCC1CCCCC1)[C@H](NC(=O)[C@@H]1CN(C(=O)c2cnn(Cc3ccccc3)c2)CC12CN(C(=O)[C@H]1CC1(C)C)C2)C(=O)NCC1(C(=O)O)CC1` [I-474], the IC50 is ≤ 10 nM.

`COc1ccc(CNC(=O)[C@@H]2CN(C(=O)c3cnn(Cc4ccccc4)c3)CC23CN(C(=O)[C@H]2CC2(C)C)C3)nn1` [I-371]: the IC50 was > 10000 nM.

`CNC(=O)[C@@H](NC(=O)[C@@H]1CN(C(=O)c2cncs2)CC12CN(CC1CCCC1)C2)[C@@H](C)OCC12CCC(CC1)OC2` [I-344, (S)—N-((2S,3R)-3-(2-oxabicyclo[2.2.2]octan-4-ylmethoxy)-1-(methylamino)-1-oxobutan-2-yl)-2-(cyclopentylmethyl)-6-(thiazole-5-carbonyl)-2,6-diazaspiro[3.4]octane-8-carboxamide]: the IC50 was > 10000 nM.

Consider `CNC(=O)[C@@H](NC(=O)[C@@H]1CN(C(=O)c2cnn(Cc3ccccc3)c2)CC12CN(C(=O)[C@H]1CC1(C)C)C2)[C@@H](C)OCC1CCC(C)(C)CC1` [I-372], for which the IC50 was ≤ 10 nM.

Take `CNC(=O)[C@@H](NC(=O)[C@@H]1CN(C(=O)c2cnn(Cc3ccccc3)c2)CC12CN(C(=O)C(C)(C)C1CC1)C2)[C@@H](C)OCc1ccccc1` [I-276]: the IC50 fell in the range of 1000 to 10000 nM.

In the case of `CNC(=O)C(NC(=O)[C@@H]1CN(C(=O)c2cncs2)CC12CN(C(=O)[C@H]1CC1(C)C)C2)C(O)Cc1ccccc1` (stereo partly drawn) [I-356], the IC50 was > 10000 nM.

Consider `C[C@@H](OCC1CCC(F)(F)CC1)[C@H](NC(=O)[C@@H]1CN(C(=O)c2cncs2)CC12CN(C(=O)[C@H]1CC1(C)C)C2)C(=O)N1C2CCC1COC2` [I-468], for which the IC50 was ≤ 10 nM.

As to `CNC(=O)[C@@H](NC(=O)[C@H]1CN(C(=O)c2cncs2)CC12CN(C(=O)[C@H]1CC1(C)C)C2)[C@@H](C)OCC1CCCCC1` [I-129B], the IC50 fell in the range of 1000 to 10000 nM.

In the case of `CNC(=O)[C@@H](NC(=O)[C@H]1CN(Cc2cncs2)CC12CN(C(=O)[C@H]1CC1(C)C)C2)[C@@H](C)OCc1ccccc1` [I-51B], the IC50 is > 10000 nM.

As for `CNC(=O)[C@@H](NC(=O)[C@H]1CN(C(=O)c2cnn(Cc3ccccc3)c2)CC12CN(C(=O)C1(C)CC1)C2)[C@@H](C)OCc1ccccc1` [I-67B], the IC50 is > 10000 nM.

As for `CNC(=O)[C@@H](NC(=O)[C@@]1(C)CN(C(=O)c2cnn(Cc3ccccc3)c2)CC12CN(C(=O)[C@H]1CC1(C)C)C2)[C@@H](C)OCC1CCCCC1` [I-499B], the IC50 was > 10000 nM.

`CNC(=O)[C@@H](NC(=O)[C@H]1CN(S(=O)(=O)c2cnn(Cc3ccccc3)c2)CC12CN(C(=O)[C@H]1CC1(C)C)C2)[C@@H](C)OCc1ccccc1` [I-79B]: the IC50 was > 10000 nM.

With `CNC(=O)[C@@H](NC(=O)[C@H]1CN(C(=O)c2scnc2Cl)CC12CN(C(=O)[C@H]1CC1(C)C)C2)[C@@H](C)OCC1CCCCC1` [I-157B], the IC50 lay in the range of 100 to 1000 nM.

Regarding `CNC(=O)[C@@H](NC(=O)[C@@H]1CN(C(=O)Cc2cnn(C)c2)CC12CN(C(=O)[C@H]1CC1(C)C)C2)[C@@H](C)OCc1ccccc1` [I-384], the IC50 was > 10000 nM.

Consider `C[C@@H](OCC1CCCCC1)[C@H](NC(=O)[C@H]1CN(C(=O)c2cn[nH]c2)CC12CN(C(=O)[C@H]1CC1(C)C)C2)C(=O)N1CCC(F)(F)CC1` [I-154B], for which the IC50 is 1000 to 10000 nM.

Consider `COC[C@H]1CCCN(C(=O)[C@@H](NC(=O)[C@@H]2CN(C(=O)c3cncs3)CC23CN(S(=O)(=O)C(C)(C)C)C3)[C@@H](C)OCC2CCCCC2)C1` [I-447, (S)-2-(tert-butylsulfonyl)-N-((2S,3R)-3-(cyclohexylmethoxy)-1-((S)-3-(methoxymethyl)piperidin-1-yl)-1-oxobutan-2-yl)-6-(thiazole-5-carbonyl)-2,6-diazaspiro[3.4]octane-8-carboxamide], for which the IC50 lay within 100 to 1000 nM.

With `C[C@@H](OCc1ccccc1)[C@H](NC(=O)C1CN(C(=O)c2cnn(Cc3ccccc3)c2)CC12CN(C(=O)[C@H]1CC1(C)C)C2)C(=O)O` (stereo partly drawn) [I-9, (2S,3R)-2-(6-(1-benzyl-1H-pyrazole-4-carbonyl)-2-((S)-2,2-dimethylcyclopropanecarbonyl)-2,6-diazaspiro[3.4]octane-8-carboxamido)-3-(benzyloxy)butanoic acid], the IC50 lay in the range of 100 to 1000 nM.

For the molecule `C[C@@H](OCC1CCCCC1)[C@H](NC(=O)[C@@H]1CN(C(=O)c2cnn(Cc3ccccc3)c2)CC12CN(C(=O)[C@H]1CC1(C)C)C2)C(N)=O` [I-200], the IC50 is ≤ 10 nM.
